Data on three compounds can be found in ChEMBL document CHEMBL4270500, “From the hive: Honey, a novel weapon against cancer” (Eur J Med Chem, 2017).

Experiment [1] can be described thus: Cytotoxicity in human M17 cells assessed as reduction in cell viability incubated for 48 hrs by MTT assay. The experiment is classed as functional, cell-based. (Tetrazolium dyes change colour on reduction, which living cells bring about.)
A short description of experiment [2]: Cytotoxicity in human SP6.5 cells assessed as reduction in cell viability incubated for 48 hrs by MTT assay. It is filed as functional, cell-based.
A further experiment relates to KYSE-510. In words: Cytotoxicity in human KYSE-510 cells assessed as reduction in cell viability incubated for 24 to 72 hrs by MTT assay. The experiment is classed as functional, cell-based.
A further experiment deals with HeLa. The experiment can be described thus: Cytotoxicity in human HeLa cells assessed as reduction in cell viability incubated for 24 to 72 hrs by MTT assay. The experiment is classed as functional, cell-based.
A further experiment relates to Caco-2. The experiment can be described thus: Inhibition of cell proliferation of human Caco2 cells at 1500 umol/L incubated for 1 to 3 days by trypan blue dye based hemocytometry relative to untreated control. It is filed as functional.
Experiment [3] concerns Ehrlich. The experiment can be described thus: Antitumour activity against mouse EAC implanted in BALB/c mouse assessed as inhibition of tumor growth at 100 mg/kg, ip dosed consecutively from day 1 to 9 relative to untreated control. It is filed as functional. To be noted: 24 h, read-out: TGI.
Experiment [4] relates to Ehrlich. In words: Antitumour activity against mouse EAC implanted in BALB/c mouse assessed as inhibition of solid tumor growth at 100 mg/kg, ip dosed consecutively from day 1 to 9 relative to untreated control. It is filed as functional. To be noted: 24 h, read-out: TGI.

As to `O=c1cc(-c2ccccc2)oc2cc(O)cc(O)c12` [CHRYSIN], the IC50 in experiment [1] turned out to be 35.8 µM; in experiment [2] it was 28.3 µM; in the experiment with KYSE-510, 63 µM; in the experiment with HeLa, 14.2 µM.

For the compound `O=C(O)/C=C/c1ccc(O)cc1` [COUMARIC ACID], the inhibition at 1500 µM with Caco-2 lay within 43 to 75%.

As for `C=CCc1ccc(O)c(OC)c1` [EUGENOL], the inhibition in vivo at 100 mg/kg came to 28.9% with Ehrlich [3] and 24.4% in the experiment with Ehrlich [4].

In general, IC50 refers to the concentration that gives 50% inhibition. The inhibition is the relative decrease from the control value, in per cent. Read a high inhibition as a strong effect.
